target: PIN1 (Homo sapiens, UniProt Q13526); assay: NMR methyl chemical shift perturbation titration; intermolecular NOEs and NMR2 complex structure; assay type: binding
Sequence (Q13526 whole entry): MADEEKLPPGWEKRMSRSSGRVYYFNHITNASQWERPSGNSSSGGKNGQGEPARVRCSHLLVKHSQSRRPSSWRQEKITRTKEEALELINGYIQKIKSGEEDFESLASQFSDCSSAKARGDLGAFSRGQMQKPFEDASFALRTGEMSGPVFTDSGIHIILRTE

Point of comparison: `Cc1nc(-c2cccc(C(F)(F)F)c2)[nH]c1C(=O)O` [compound 3], Kd 6700 µM. Against it:
- Cc1cccc(-c2nc(C(=O)O)c(C)[nH]2)c1 [compound 1] — 26-fold lower, 260 µM
- Cc1nc(-c2cccc(Cl)c2)[nH]c1C(=O)O [compound 2] — 10-fold lower, 670 µM

Source: paper PMC7649837, “Protein–fragment complex structures derived by NMR molecular replacement” (RSC Medicinal Chemistry, 2020)
